For one test, the system named is redroot pigweed (Amaranthus retroflexus L.): AMARE. As to the kind of experiment: Test Example 1 pre-emergence herbicidal activity, AMARE. Type of test: in vivo. Particulars: Rate 125 g a.i./ha, visually observed 20th to 23rd day after application. The source says:
(§1) Upland field soil was put into a 1/170,000 ha pot, and seeds of various plants {1. barnyardgrass (Echinochloa crus-galli L.): ECHCG, 2. crabgrass (Digitaria sanguinalis L.): DIGSA, 3. green foxtail (Setaria viridis L.): SETVI, 4. redroot pigweed (Amaranthus retroflexus L.): AMARE, 5. prickly sida (Sida spinosa L.): SEDSP, 6. velvetleaf (Abutilon theophrasti): ABUTH, 7. common cocklebur (Xanthium strumarium L.): XANST, 8. rice (Oryza sativa L.): ORYSA, 9. wheat (Triticum aestivum L.): TRZAX, 10. corn (Zea mays L.): ZEAMX, 11. soybean (Glycine max Merr.): GLXMA} were sown. Then, one day after the sowing, a wettable powder or emulsifiable concentrate having the compound of the present invention formulated in accordance with a usual formulation method, was weighed so that the active ingredient would be a predetermined amount and diluted with water in an amount of 500 L/ha. The herbicide adjusted was applied by a small size sprayer for preemergence treatment. On the 20th to 23rd day after the application of the herbicide, the growth of the respective plants was visually observed, and the herbicidal effects were evaluated by growth controlling degrees (%) ranging from 0 (equivalent to the untreated control) to 100 (complete kill), whereby the results shown in Table 4, were obtained. Compound Nos. in Table 4 correspond to Compound Nos. in Table 1 and 2 given hereinbefore.
Turning to `COc1c(Cl)cc(F)c(-c2nn(C)c(OC(F)F)c2Cl)c1NC(=O)c1ccc2ccccc2c1` [Compound 1-271], the “Pre-emergence Herbicidal Activity AMARE (growth controlling degree)” value was determined as 100%.

The next test deals with wheat (Triticum aestivum L.): TRZAX. The experiment in a line: Test Example 1 pre-emergence herbicidal activity, TRZAX. The following applies: Rate 63 g a.i./ha, visually observed 20th to 23rd day after application. In kind it is in vivo.
Text: as §1
As to `COc1c(Cl)cc(F)c(-c2nn(C)c(OC(F)F)c2Cl)c1NCCOc1ccccc1` [Compound 1-77], the “Pre-emergence Herbicidal Activity TRZAX (growth controlling degree)” value was 0%.

The same test, now with this note: Rate 125 g a.i./ha, visually observed 20th to 23rd day after application.
Take `COc1c(Cl)cc(F)c(-c2nn(C)c(OC(F)F)c2Cl)c1NC(=O)c1ccc2ccccc2c1` [Compound 1-271]: the “Pre-emergence Herbicidal Activity TRZAX (growth controlling degree)” value was found to be 10%.

A further test has as its system barnyardgrass (Echinochloa crus-galli L.), ECHCG. As to the kind of experiment: Test Example 2 post-emergence (foliage treatment) herbicidal activity, ECHCG. Type of test: in vivo. The following applies: 63 g a.i./ha. The source says:
(§2) Upland field soil was put into a 1/170,000 ha pot, and seeds of various plants were sown. Then, when the plants reached predetermined leaf stages {1. barnyardgrass (Echinochloa crus-galli L.), ECHCG: 1.1-2.1 leaf stage, 2. crabgrass (Digitaria sanguinalis L.), DIGSA: 1.0-2.0 leaf stage, 3. green foxtail (Setaria viridis L.), SETVI: 1.0-2.2 leaf stage, 4. redroot pigweed (Amaranthus retroflexus L.), AMARE: 0.1-1.5 leaf stage, 5. prickly sida (Sida spinosa L.), SIDSP: 0.1-0.6 leaf stage, 6. velvetleaf (Abutilon theophrasti), ABUTH: 0.1-0.6 leaf stage, 7. common cocklebur (Xanthium strumarium L.), XANST: 0.1 leaf stage, 8. rice (Oryza sativa L.), ORYSA; 1.0-2 leaf stage, 9. wheat (Triticum aestivum L.), TRZAX: 2.3-3.5 leaf stage, 10. corn (Zea mays L.), ZEAMXN 2.1-2.6 leaf stage, 11. soybean (Glycine max Merr.), GLXMA: primary leaf stage}, a wettable powder or emulsifiable concentrate having the compound of the present invention formulated in accordance with a usual formulation method, was weighed so that the active ingredient would be a predetermined amount, and diluted with water in an amount of 500 L/ha. To the diluted solution, 0.1% (v/v) of an agricultural spreader was added. The herbicide adjusted was applied by a small size sprayer for foliage treatment. On the 20th to 23rd day after the application of the herbicide, the growth of the respective plants was visually observed, and the herbicidal effects were evaluated by growth controlling degrees (%) ranging from 0 (equivalent to the untreated control) to 100 (complete kill), whereby the results shown in Table 5, were obtained. Compound Nos. in Table 5 correspond to Compound Nos. in Table 1 and 2 given hereinbefore.
Consider `COc1c(Cl)cc(F)c(-c2nn(C)c(OC(F)F)c2Cl)c1NCCOc1ccccc1` [Compound 1-77], for which the “growth controlling degree, ECHCO” value is 70%.

The next test concerns crabgrass (Digitaria sanguinalis L.): DIGSA. The experiment in a line: Test Example 1 pre-emergence herbicidal activity, DIGSA. The following applies: Rate 63 g a.i./ha, visually observed 20th to 23rd day after application. Type of test: in vivo.
Text: as §1
In the case of `COc1c(Cl)cc(F)c(-c2nn(C)c(OC(F)F)c2Cl)c1NCCOc1ccccc1` [Compound 1-77], the “Pre-emergence Herbicidal Activity DIGSP (growth controlling degree)” value is on record as 0%.

The same test, now with this note: Rate 125 g a.i./ha, visually observed 20th to 23rd day after application.
Take `COc1c(Cl)cc(F)c(-c2nn(C)c(OC(F)F)c2Cl)c1NC(=O)c1ccc2ccccc2c1` [Compound 1-271]: the “Pre-emergence Herbicidal Activity DIGSP (growth controlling degree)” value was determined as 100%.

A further test has as its system corn (Zea mays L.): ZEAMX. The experiment in a line: Test Example 1 pre-emergence herbicidal activity, ZEAMX. Type of test: in vivo. The following applies: Rate 63 g a.i./ha, visually observed 20th to 23rd day after application.
Text: as §1
`COc1c(Cl)cc(F)c(-c2nn(C)c(OC(F)F)c2Cl)c1NCCOc1ccccc1` [Compound 1-77]: the “Pre-emergence Herbicidal Activity ZEAMX (growth controlling degree)” value is reported as 0%.

The test is the same for the next values; noted with them: Rate 125 g a.i./ha, visually observed 20th to 23rd day after application.
For `COc1c(Cl)cc(F)c(-c2nn(C)c(OC(F)F)c2Cl)c1NC(=O)c1ccc2ccccc2c1` [Compound 1-271], the “Pre-emergence Herbicidal Activity ZEAMX (growth controlling degree)” value was determined as 20%.

The test system of another test is soybean (Glycine max Merr.), GLXMA. As to the kind of experiment: Test Example 2 post-emergence (foliage treatment) herbicidal activity, GLXMA. Type of test: in vivo. The following applies: 63 g a.i./ha.
Text: as §2
Turning to `COc1c(Cl)cc(F)c(-c2nn(C)c(OC(F)F)c2Cl)c1NCCOc1ccccc1` [Compound 1-77], the “growth controlling degree, GLXMA” value was 60%.

The next test concerns velvetleaf (Abutilon theophrasti): ABUTH. As to the kind of experiment: Test Example 1 pre-emergence herbicidal activity, ABUTH. Type of test: in vivo. Particulars: Rate 63 g a.i./ha, visually observed 20th to 23rd day after application.
Text: as §1
Regarding `COc1c(Cl)cc(F)c(-c2nn(C)c(OC(F)F)c2Cl)c1NCCOc1ccccc1` [Compound 1-77], the “Pre-emergence Herbicidal Activity ABUTH (growth controlling degree)” value is 0%.

Staying with this test, now noted: Rate 125 g a.i./ha, visually observed 20th to 23rd day after application.
On to `COc1c(Cl)cc(F)c(-c2nn(C)c(OC(F)F)c2Cl)c1NC(=O)c1ccc2ccccc2c1` [Compound 1-271], for which the “Pre-emergence Herbicidal Activity ABUTH (growth controlling degree)” value was 40%.

The next test concerns rice (Oryza sativa L.): ORYSA. The experiment in a line: Test Example 1 pre-emergence herbicidal activity, ORYSA. Type of test: in vivo. The following applies: Rate 63 g a.i./ha, visually observed 20th to 23rd day after application.
Text: as §1
For `COc1c(Cl)cc(F)c(-c2nn(C)c(OC(F)F)c2Cl)c1NCCOc1ccccc1` [Compound 1-77], the “Pre-emergence Herbicidal Activity ORYSA (growth controlling degree)” value came out at 0%.

The test is the same for the next values; noted with them: Rate 125 g a.i./ha, visually observed 20th to 23rd day after application.
In the case of `COc1c(Cl)cc(F)c(-c2nn(C)c(OC(F)F)c2Cl)c1NC(=O)c1ccc2ccccc2c1` [Compound 1-271], the “Pre-emergence Herbicidal Activity ORYSA (growth controlling degree)” value is listed as 60%.

A further test relates to barnyardgrass (Echinochloa crus-galli L.): ECHCG. As to the kind of experiment: Test Example 1 pre-emergence herbicidal activity, ECHCG. Particulars: Rate 63 g a.i./ha, visually observed 20th to 23rd day after application. In kind it is in vivo.
Text: as §1
For the compound `COc1c(Cl)cc(F)c(-c2nn(C)c(OC(F)F)c2Cl)c1NCCOc1ccccc1` [Compound 1-77], the “Pre-emergence Herbicidal Activity ECHCG (growth controlling degree)” value is on record as 0%.

Still in this test, the particulars now being: Rate 125 g a.i./ha, visually observed 20th to 23rd day after application.
Regarding `COc1c(Cl)cc(F)c(-c2nn(C)c(OC(F)F)c2Cl)c1NC(=O)c1ccc2ccccc2c1` [Compound 1-271], the “Pre-emergence Herbicidal Activity ECHCG (growth controlling degree)” value was 70%.

Another test relates to velvetleaf (Abutilon theophrasti), ABUTH. As to the kind of experiment: Test Example 2 post-emergence (foliage treatment) herbicidal activity, ABUTH. Type of test: in vivo. Particulars: 63 g a.i./ha.
Text: as §2
On to `COc1c(Cl)cc(F)c(-c2nn(C)c(OC(F)F)c2Cl)c1NCCOc1ccccc1` [Compound 1-77], for which the “growth controlling degree, ABUTH” value was 100%.

The test system of another test is prickly sida (Sida spinosa L.), SIDSP. As to the kind of experiment: Test Example 2 post-emergence (foliage treatment) herbicidal activity, SIDSP. In kind it is in vivo. Particulars: 63 g a.i./ha.
Text: as §2
Take `COc1c(Cl)cc(F)c(-c2nn(C)c(OC(F)F)c2Cl)c1NCCOc1ccccc1` [Compound 1-77]: the “growth controlling degree, SIDSP” value came out at 100%.

The test system of the next test is prickly sida (Sida spinosa L.): SEDSP. The experiment in a line: Test Example 1 pre-emergence herbicidal activity, SIDSP. Type of test: in vivo. The following applies: Rate 63 g a.i./ha, visually observed 20th to 23rd day after application.
Text: as §1
In the case of `COc1c(Cl)cc(F)c(-c2nn(C)c(OC(F)F)c2Cl)c1NCCOc1ccccc1` [Compound 1-77], the “Pre-emergence Herbicidal Activity SIDSP (growth controlling degree)” value was determined as 0%.

The test is the same for the next values; noted with them: Rate 125 g a.i./ha, visually observed 20th to 23rd day after application.
Take `COc1c(Cl)cc(F)c(-c2nn(C)c(OC(F)F)c2Cl)c1NC(=O)c1ccc2ccccc2c1` [Compound 1-271]: the “Pre-emergence Herbicidal Activity SIDSP (growth controlling degree)” value is reported as 100%.

The subject of a further test is crabgrass (Digitaria sanguinalis L.), DIGSA. As to the kind of experiment: Test Example 2 post-emergence (foliage treatment) herbicidal activity, DIGSA. In kind it is in vivo. Particulars: 63 g a.i./ha.
Text: as §2
`COc1c(Cl)cc(F)c(-c2nn(C)c(OC(F)F)c2Cl)c1NCCOc1ccccc1` [Compound 1-77]: the “growth controlling degree, DIGSP” value was 60%.

Another test deals with green foxtail (Setaria viridis L.), SETVI. The experiment in a line: Test Example 2 post-emergence (foliage treatment) herbicidal activity, SETVI. Type of test: in vivo. Particulars: 63 g a.i./ha.
Text: as §2
Take `COc1c(Cl)cc(F)c(-c2nn(C)c(OC(F)F)c2Cl)c1NCCOc1ccccc1` [Compound 1-77]: the “growth controlling degree, SETVI” value was determined as 95%.

The next test concerns rice (Oryza sativa L.), ORYSA. As to the kind of experiment: Test Example 2 post-emergence (foliage treatment) herbicidal activity, ORYSA. Type of test: in vivo. The following applies: 63 g a.i./ha.
Text: as §2
Consider `COc1c(Cl)cc(F)c(-c2nn(C)c(OC(F)F)c2Cl)c1NCCOc1ccccc1` [Compound 1-77], for which the “growth controlling degree, ORYSA” value is given as 40%.

The test system of a further test is corn (Zea mays L.), ZEAMX. The experiment in a line: Test Example 2 post-emergence (foliage treatment) herbicidal activity, ZEAMX. Type of test: in vivo. The following applies: 63 g a.i./ha.
Text: as §2
For the compound `COc1c(Cl)cc(F)c(-c2nn(C)c(OC(F)F)c2Cl)c1NCCOc1ccccc1` [Compound 1-77], the “growth controlling degree, ZEAMX” value is reported as 60%.

A further test relates to soybean (Glycine max Merr.): GLXMA. The experiment in a line: Test Example 1 pre-emergence herbicidal activity, GLXMA. Particulars: Rate 63 g a.i./ha, visually observed 20th to 23rd day after application. Type of test: in vivo.
Text: as §1
As for `COc1c(Cl)cc(F)c(-c2nn(C)c(OC(F)F)c2Cl)c1NCCOc1ccccc1` [Compound 1-77], the “Pre-emergence Herbicidal Activity GLXMA (growth controlling degree)” value is listed as 0%.

The test is the same for the next values; noted with them: Rate 125 g a.i./ha, visually observed 20th to 23rd day after application.
Consider `COc1c(Cl)cc(F)c(-c2nn(C)c(OC(F)F)c2Cl)c1NC(=O)c1ccc2ccccc2c1` [Compound 1-271], for which the “Pre-emergence Herbicidal Activity GLXMA (growth controlling degree)” value is on record as 20%.

The next test concerns green foxtail (Setaria viridis L.): SETVI. As to the kind of experiment: Test Example 1 pre-emergence herbicidal activity, SETVI. Particulars: Rate 63 g a.i./ha, visually observed 20th to 23rd day after application. Type of test: in vivo.
Text: as §1
On to `COc1c(Cl)cc(F)c(-c2nn(C)c(OC(F)F)c2Cl)c1NCCOc1ccccc1` [Compound 1-77], for which the “Pre-emergence Herbicidal Activity SETVI (growth controlling degree)” value is reported as 10%.

Staying with this test, now noted: Rate 125 g a.i./ha, visually observed 20th to 23rd day after application.
For the compound `COc1c(Cl)cc(F)c(-c2nn(C)c(OC(F)F)c2Cl)c1NC(=O)c1ccc2ccccc2c1` [Compound 1-271], the “Pre-emergence Herbicidal Activity SETVI (growth controlling degree)” value is reported as 90%.

Another test concerns wheat (Triticum aestivum L.), TRZAX. The experiment in a line: Test Example 2 post-emergence (foliage treatment) herbicidal activity, TRZAX. Particulars: 63 g a.i./ha. Type of test: in vivo.
Text: as §2
`COc1c(Cl)cc(F)c(-c2nn(C)c(OC(F)F)c2Cl)c1NCCOc1ccccc1` [Compound 1-77]: the “growth controlling degree, TRZAX” value was found to be 30%.
